In article PMC10620772, “Design, synthesis, and biological evaluation of new pyrimidine-5-carbonitrile derivatives as novel anti-cancer, dual EGFR^WT/COX-2 inhibitors with docking studies” (RSC Advances, 2023):

What was measured:
Format in all cases: cell-based, human
NCI/ADR-RES = test: NCI60 antitumor screening; details: for inhibition at 10 µM: Homo sapiens, 10 μM single dose, NCI/ADR-RES (ovarian cancer), read-out: growth inhibition percent (GI%)
OVCAR-4 = test: NCI60 antitumor screening; details: for inhibition at 10 µM: Homo sapiens, 10 μM single dose, OVCAR-4 (ovarian cancer), read-out: growth inhibition percent (GI%); for GI%: 10 μM one-dose
SK-MEL-28 = test: NCI60 antitumor screening; details: for inhibition at 10 µM: Homo sapiens, 10 μM single dose, SK-MEL-28 (melanoma), read-out: growth inhibition percent (GI%)
SW-620 = test: NCI60 antitumor screening; details: for inhibition at 10 µM: Homo sapiens, 10 μM single dose, SW-620 (colon cancer), read-out: growth inhibition percent (GI%)
HCT-116 = test: NCI60 antitumor screening; details: for inhibition at 10 µM: Homo sapiens, 10 μM single dose, HCT-116 (colon cancer), read-out: growth inhibition percent (GI%)
NCI-H226 = test: NCI60 antitumor screening; details: for inhibition at 10 µM: Homo sapiens, 10 μM single dose, NCI-H226 (non-small cell lung cancer), read-out: growth inhibition percent (GI%); for GI%: 10 μM one-dose
BT-549 = test: NCI60 antitumor screening; details: for inhibition at 10 µM: Homo sapiens, 10 μM single dose, BT-549 (breast cancer), read-out: growth inhibition percent (GI%)
HCC-2998 = test: NCI60 antitumor screening; details: for inhibition at 10 µM: Homo sapiens, 10 μM single dose, HCC-2998 (colon cancer), read-out: growth inhibition percent (GI%)
LOX IMVI = test: NCI60 antitumor screening; details: for inhibition at 10 µM: Homo sapiens, 10 μM single dose, LOX IMVI (melanoma), read-out: growth inhibition percent (GI%)
EKVX = test: NCI60 antitumor screening; details: for inhibition at 10 µM: Homo sapiens, 10 μM single dose, EKVX (non-small cell lung cancer), read-out: growth inhibition percent (GI%)
RXF 393 = test: NCI60 antitumor screening; details: for inhibition at 10 µM: Homo sapiens, 10 μM single dose, RXF 393 (renal cancer), read-out: growth inhibition percent (GI%); for GI%: 10 μM one-dose
SR = test: NCI60 antitumor screening; details: for inhibition at 10 µM: Homo sapiens, 10 μM single dose, SR (leukaemia), read-out: growth inhibition percent (GI%)
DU-145 = test: NCI60 antitumor screening; details: for inhibition at 10 µM: Homo sapiens, DU-145, read-out: growth inhibition percent (GI%)
RPMI-8226 = test: NCI60 antitumor screening; details: for inhibition at 10 µM: Homo sapiens, 10 μM single dose, RPMI-8226 (leukaemia), read-out: growth inhibition percent (GI%)
COLO 205 = test: NCI60 antitumor screening; details: for inhibition at 10 µM: Homo sapiens, 10 μM single dose, COLO 205 (colon cancer), read-out: growth inhibition percent (GI%)
NCI60 cell lines panel = test: NCI60 antitumor screening, full panel; details: for One-dose activity over the NCI60 panel: 10 μM; for inhibition at 10 µM: Homo sapiens, 10 μM single dose, mean over NCI60 cell lines, read-out: Mean growth inhibition percent (GI%)
How it was run: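 Single-concentration screen at 10 μM across the NCI60 panel (leukaemia, NSCLC, colon, CNS, melanoma, ovarian, renal, prostate, breast). Results are expressed as percent growth inhibition (GI%) of treated lines.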

MDA-MB-231/ATCC = test: NCI60 antitumor screening; details: for inhibition at 10 µM: Homo sapiens, 10 μM single dose, MDA-MB-231/ATCC (breast cancer), read-out: growth inhibition percent (GI%)
OVCAR-8 = test: NCI60 antitumor screening; details: for inhibition at 10 µM: Homo sapiens, 10 μM single dose, OVCAR-8 (ovarian cancer), read-out: growth inhibition percent (GI%)
HOP-92 = test: NCI60 antitumor screening; details: for inhibition at 10 µM: Homo sapiens, 10 μM single dose, HOP-92 (non-small cell lung cancer), read-out: growth inhibition percent (GI%)
UACC-62 = test: NCI60 antitumor screening; details: for inhibition at 10 µM: Homo sapiens, 10 μM single dose, UACC-62 (melanoma), read-out: growth inhibition percent (GI%)
SK-MEL-2 = test: NCI60 antitumor screening; details: for inhibition at 10 µM: Homo sapiens, 10 μM single dose, SK-MEL-2 (melanoma), read-out: growth inhibition percent (GI%)
SK-OV-3 = test: NCI60 antitumor screening; details: for inhibition at 10 µM: Homo sapiens, 10 μM single dose, SK-OV-3 (ovarian cancer), read-out: growth inhibition percent (GI%)
UO-31 = test: NCI60 antitumor screening; details: for inhibition at 10 µM: Homo sapiens, 10 μM single dose, UO-31 (renal cancer), read-out: growth inhibition percent (GI%)
NCI-H23 = test: NCI60 antitumor screening; details: for inhibition at 10 µM: Homo sapiens, 10 μM single dose, NCI-H23 (non-small cell lung cancer), read-out: growth inhibition percent (GI%)

**Q.** What does the source list for CN1CCN(c2nc(SCc3ccc([N+](=O)[O-])cc3)nc(-c3ccc(F)cc3)c2C#N)CC1 [4k, 4-(4-Fluorophenyl)-6-(4-methylpiperazin-1-yl)-2-((4-nitrobenzyl)thio)pyrimidine-5-carbonitrile]?
**A.** inhibition at 10 µM (NCI/ADR-RES): 25.1%; inhibition at 10 µM (OVCAR-4): < 10%; inhibition at 10 µM (SK-MEL-28): 14.4%; inhibition at 10 µM (SW-620): < 10%; inhibition at 10 µM (HCT-116): 18.4%; inhibition at 10 µM (NCI-H226): < 10%; inhibition at 10 µM (BT-549): 46.5%; inhibition at 10 µM (HCC-2998): < 10%; inhibition at 10 µM (LOX IMVI): 20.9%; inhibition at 10 µM (EKVX): 22.4%; inhibition at 10 µM (RXF 393): 68.5%; inhibition at 10 µM (SR): < 10%; inhibition at 10 µM (DU-145): < 10%; inhibition at 10 µM (RPMI-8226): 17.8%; inhibition at 10 µM (COLO 205): < 10%; One-dose activity over the NCI60 panel (NCI60 cell lines panel): moderate activity against numerous cell lines; inhibition at 10 µM (NCI60 cell lines panel): 17.5%; inhibition at 10 µM (MDA-MB-231/ATCC): 35.1%; inhibition at 10 µM (OVCAR-8): 11.7%; inhibition at 10 µM (HOP-92): 47%; inhibition at 10 µM (UACC-62): 19.8%; inhibition at 10 µM (SK-MEL-2): < 10%; inhibition at 10 µM (SK-OV-3): 20.9%; inhibition at 10 µM (UO-31): 40%; inhibition at 10 µM (NCI-H23): 19.7%

**Q.** Which results are given for Cc1ccc(CSc2nc(-c3ccc(F)cc3)c(C#N)c(N3CCOCC3)n2)cc1 [4d, 4-(4-Fluorophenyl)-2-((4-methylbenzyl)thio)-6-morpholinopyrimidine-5-carbonitrile]?
**A.** GI% (NCI/ADR-RES; 10 μM one-dose): — (GI% < 10); GI% (OVCAR-4): 20.15%; GI% (OVCAR-4; Table 1): — (GI value > 70%); GI% (SK-MEL-28; 10 μM one-dose): — (GI% < 10); GI% (SW-620; 10 μM one-dose): — (GI% < 10); GI% (HCT-116; 10 μM one-dose): 19.81%; GI% (NCI-H226): 21.35%; GI% (NCI-H226; Table 1): — (GI value > 70%); GI% (BT-549; 10 μM one-dose): 11.94%; GI% (HCC-2998; 10 μM one-dose): — (GI% < 10); GI% (LOX IMVI; 10 μM one-dose): 11.10%; GI% (EKVX; 10 μM one-dose): 13.10%; GI% (RXF 393): 48.96%; GI% (RXF 393; Table 1): — (GI value > 70%); GI% (SR; 10 μM one-dose, Table 1): — (GI value > 70%); GI% (DU-145; 10 μM one-dose): — (GI% < 10); GI% (RPMI-8226; 10 μM one-dose): — (GI% < 10); GI% (COLO 205; 10 μM one-dose): — (GI% < 10); Mean GI% (NCI60 cell lines panel; 10 μM one-dose, mean over NCI60): 14.01%; GI% (MDA-MB-231/ATCC; 10 μM one-dose): 31.92%; GI% (OVCAR-8; 10 μM one-dose): 23.86%; GI% (HOP-92; 10 μM one-dose): 34.62%; GI% (UACC-62; 10 μM one-dose): 22.83%; GI% (SK-MEL-2; 10 μM one-dose): — (GI% < 10); GI% (SK-OV-3; 10 μM one-dose): 11.69%; GI% (UO-31; 10 μM one-dose): 10.06%; GI% (NCI-H23; 10 μM one-dose): — (GI% < 10)

**Q.** Which inhibition at 10 µM (NCI/ADR-RES) does the source give for Cc1ccc(CSc2nc(-c3ccc(F)cc3)c(C#N)c(N3CCN(C)CC3)n2)cc1 [4l, 4-(4-Fluorophenyl)-2-((4-methylbenzyl)thio)-6-(4-methylpiperazin-1-yl) pyrimidine-5-carbonitrile] here?
**A.** Its inhibition at 10 µM is 12.7%.

**Q.** What about the inhibition at 10 µM (OVCAR-4) of the same compound?
**A.** Its inhibition at 10 µM is less than 10%.

**Q.** What about the inhibition at 10 µM (SK-MEL-28) of the same compound?
**A.** The inhibition at 10 µM was less than 10%.

**Q.** And the inhibition at 10 µM (SW-620)?
**A.** Its inhibition at 10 µM is less than 10%.

**Q.** What about the inhibition at 10 µM (HCT-116) of the same compound?
**A.** The inhibition at 10 µM was 13.1%.

**Q.** And the inhibition at 10 µM (NCI-H226)?
**A.** The inhibition at 10 µM was less than 10%.

**Q.** What about the inhibition at 10 µM (BT-549) of the same compound?
**A.** The inhibition at 10 µM was 10.8%.

**Q.** What about the inhibition at 10 µM (HCC-2998) of the same compound?
**A.** Its inhibition at 10 µM is less than 10%.

**Q.** What about the inhibition at 10 µM (LOX IMVI) of the same compound?
**A.** The inhibition at 10 µM was 12.8%.

**Q.** And the inhibition at 10 µM (EKVX)?
**A.** The inhibition at 10 µM was 12.5%.

**Q.** And the inhibition at 10 µM (RXF 393)?
**A.** Its inhibition at 10 µM is 42.4%.

**Q.** And the inhibition at 10 µM (SR)?
**A.** The inhibition at 10 µM was less than 10%.

**Q.** What about the inhibition at 10 µM (DU-145) of the same compound?
**A.** The inhibition at 10 µM was less than 10%.

**Q.** And the inhibition at 10 µM (RPMI-8226)?
**A.** Its inhibition at 10 µM is 15.5%.

**Q.** What about the inhibition at 10 µM (COLO 205) of the same compound?
**A.** The inhibition at 10 µM was less than 10%.

**Q.** What about the “One-dose activity over the NCI60 panel” value (NCI60 cell lines panel) of the same compound?
**A.** Its value is “moderate activity against numerous cell lines”.

**Q.** And the inhibition at 10 µM (NCI60 cell lines panel)?
**A.** The inhibition at 10 µM was 11.2%.

**Q.** What about the inhibition at 10 µM (MDA-MB-231/ATCC) of the same compound?
**A.** Its inhibition at 10 µM is 28.9%.

**Q.** What about the inhibition at 10 µM (OVCAR-8) of the same compound?
**A.** Its inhibition at 10 µM is 11.9%.

**Q.** And the inhibition at 10 µM (HOP-92)?
**A.** Its inhibition at 10 µM is 39.3%.

**Q.** What about the inhibition at 10 µM (UACC-62) of the same compound?
**A.** Its inhibition at 10 µM is 13%.

**Q.** What about the inhibition at 10 µM (SK-MEL-2) of the same compound?
**A.** The inhibition at 10 µM was less than 10%.

**Q.** What about the inhibition at 10 µM (SK-OV-3) of the same compound?
**A.** The inhibition at 10 µM was less than 10%.

**Q.** What about the inhibition at 10 µM (UO-31) of the same compound?
**A.** Its inhibition at 10 µM is 17.6%.

**Q.** And the inhibition at 10 µM (NCI-H23)?
**A.** The inhibition at 10 µM was less than 10%.
